The values below come from patent US20240124444A1 (Celgene Corporation, priority 2020, published 2024).

The experiment concerns C. parvum strain UGA1. The experiment is described as follows: C. parvum growth inhibition assay (Nluc luminescence in HCT-8 cells). It counts as cell-based, Cryptosporidium parvum. The note with it: for EC50: C. parvum growth inhibition in HCT-8 cells, 48 hours, 6 concentrations 10-0.04 μM; for inhibition at 1 µM / inhibition at 10 µM: HCT-8; for inhibition at 1 µM: read-out: % inh @ 1 uM C. parvum; for inhibition at 10 µM: read-out: % inh @ 10 uM C. parvum. Here is the method: C. parvum GROWTH INHIBITION ASSAYS
C. parvum growth inhibition was performed as described in Hulverson M A, Vinayak S, Choi R, Schaefer D A, Castellanos-Gonzalez A, Vidadala R S R, Brooks C F, Herbert G T, Betzer D P, Whitman G R, Sparks H N, Arnold S L M, Rivas K L, Barrett L K, White A C Jr, Maly D J, Riggs M W, Striepen B, Van Voorhis W C, Ojo K K. Bumped-Kinase Inhibitors for Cryptosporidiosis Therapy. J Infect Dis. 2017 Apr. 15; 215(8):1275-1284.
C. parvum strain UGA1 […] (ATCC, Manassas, VA) were prepared as described below. HCT-8 cells were inoculated onto 96-well plates were grown for 48 hours to 90%-100% confluence. C. parvum oocysts were then incubated for 10 minutes in 10% bleach at room temperature and washed with Dulbecco's phosphate-buffered saline. One thousand oocysts per well were applied to plates with Roswell Park Memorial Institute 1640 (RPMI) medium supplemented with 10% horse serum and 1% penicillin/streptomycin. Compounds of Formula (I), Formula (II), and Formula (III) were added to the plates at different concentrations and the plates were incubated for 48 hours. Following the incubation, the monolayers were lysed for 1 hour before a luciferase reagent was added, and relative luminescence units were determined.
For certain compounds of Formula I, Formula II, and Formula III, EC50 values were calculated using curves calculated from Prism after analysis of C. parvum growth inhibition at 6 different concentrations: 10, 3.33, 1.11, 0.37, 0.12, and 0.04 μM. […] For certain compounds of Formula I, Formula II, and Formula III, single point inhibition values of 0-33% (activity level D), between 33% and 66% (activity level E), and between 67% and 100% (activity level F) are also shown in Table 1 below.

[1] abbreviates: Cryptosporidium parvum, HCT-8, 48 h.
[2] abbreviates: Cryptosporidium parvum, single point inhibition @ 1 uM.
The mark [3] stands for this setting: Cryptosporidium parvum, single point inhibition @ 10 uM.
[4] abbreviates: Cryptosporidium parvum, single point inhibition at 1 uM.
The mark [5] stands for this setting: Cryptosporidium parvum, single point inhibition at 10 uM.

Like-named read-outs stand apart in the source and are kept apart here.

The EC50 is the concentration that produces a half-maximal response. Low values mean a more potent agent, high ones a less potent agent. Consider `N#Cc1cc(-c2cc3cnc(Nc4cccc(C5CCOCC5)c4)cc3[nH]2)ccn1` [Example 54, 4-(6-(3-(tetrahydro-2H-pyran-4-yl)phenylamino)-1H-pyrrolo[3,2-c]pyridin-2-yl)picolinonitrile], for which the EC50 under setting [1] was over 1 µM. Also, the inhibition at 1 µM under setting [2] lay within 0 to 33%. The inhibition at 10 µM under setting [3] was 67 to 100%.

For the compound `CN1CCC(c2cc3cnc(NC(=O)C4CC4)cc3[nH]2)CC1` [Example 255, N-(2-(1-methylpiperidin-4-yl)-1H-pyrrolo[3,2-c]pyridin-6-yl)cyclopropanecarboxamide], the inhibition at 1 µM under setting [4] was in the range of 0 to 33%. The inhibition at 10 µM under setting [5] lay within 0 to 33%.

For the compound `CC(C)CC(=O)Nc1cc2[nH]c(-c3ccncc3)cc2cn1` [Example 134, 3-methyl-N-(2-(pyridin-4-yl)-1H-pyrrolo[3,2-c]pyridin-6-yl)butanamide], under setting [2], the inhibition at 1 µM fell in the range of 0 to 33%. Moreover, the inhibition at 10 µM under setting [3] lay in the range of 67 to 100%.

In turn, `O=C(Nc1cc2[nH]c(-c3cnc(C(F)(F)F)o3)cc2cn1)C1CC1` [Example 110, N-(2-(2-(trifluoromethyl)oxazol-5-yl)-1H-pyrrolo[3,2-c]pyridin-6-yl)cyclopropanecarboxamide] came in with an EC50 under setting [1] of over 1 µM.

As to `Cc1cc(-c2cc3cnc(NC4CCOCC4)cc3[nH]2)ncn1` [Example 38], the EC50 under setting [1] is over 1 µM.

Regarding `Cc1cc(-c2cc3cnc(NC(=O)C4(C)CC4)cc3[nH]2)ccn1` [Example 95, 1-methyl-N-(2-(2-methylpyridin-4-yl)-1H-pyrrolo[3,2-c]pyridin-6-yl)cyclopropanecarboxamide], the concentration for a half-maximal effect (EC50) under setting [1] was over 1 µM.

As to `Cn1cc(C(=O)Nc2cc3[nH]c(-c4cccnc4)cc3cn2)cn1` [Example 332, 1-methyl-N-(2-(pyridin-3-yl)-1H-pyrrolo[3,2-c]pyridin-6-yl)-1H-pyrazole-4-carboxamide], under setting [4], the inhibition at 1 µM lay in the range of 0 to 33%. Also, the inhibition at 10 µM under setting [5] was 0 to 33%.

In turn, `O=C(Nc1cc2[nH]c(C3CCOCC3)cc2cn1)C1CC1` [Example 94, N-(2-(tetrahydro-2H-pyran-4-yl)-1H-pyrrolo[3,2-c]pyridin-6-yl)cyclopropanecarboxamide] gave an EC50 under setting [1] of over 1 µM. Moreover, the inhibition at 1 µM under setting [2] lay in the range of 0 to 33%. Besides, under setting [3], the inhibition at 10 µM is 0 to 33%.

As to `Cc1cc(-c2cc3cnc(NC(=O)c4c(C)noc4C)cc3[nH]2)ccn1` [Example 221, 3,5-dimethyl-N-(2-(2-methylpyridin-4-yl)-1H-pyrrolo[3,2-c]pyridin-6-yl)isoxazole-4-carboxamide], the inhibition at 1 µM under setting [4] fell in the range of 0 to 33%. Besides, the inhibition at 10 µM under setting [5] is 33 to 66%.

Consider `CC(=O)Nc1cc2c(cn1)cc(C#N)n2C` [Example 245, N-(2-cyano-1-methyl-1H-pyrrolo[3,2-c]pyridin-6-yl)acetamide], for which the inhibition at 1 µM under setting [4] fell in the range of 0 to 33%. Also, the inhibition at 10 µM under setting [5] was 0 to 33%.

Regarding `COc1nccc(-c2cc3cnc(NC(=O)c4cccc5[nH]ncc45)cc3[nH]2)n1` [Example 269, N-(2-(2-methoxypyrimidin-4-yl)-1H-pyrrolo[3,2-c]pyridin-6-yl)-1H-indazole-4-carboxamide], the inhibition at 1 µM under setting [4] was in the range of 0 to 33%. Further, under setting [5], the inhibition at 10 µM was in the range of 0 to 33%.

As for `Cc1cc(-c2cc3cnc(NC(=O)[C@H]4CCCO4)cc3[nH]2)ccn1` [Example 212, (R)-N-(2-(2-methylpyridin-4-yl)-1H-pyrrolo[3,2-c]pyridin-6-yl)tetrahyrdofuran-2-carboxamide], the “% inh @ 1 uM C. parvum” value (single point inhibition at 1 uM) was “D (single point inhibition values of 0-33% (activity level D))”. The “% inh @ 10 uM C. parvum” value (single point inhibition at 10 uM) was “F (between 67% and 100% (activity level F))”.

Consider `C[C@H]1C[C@@H]1C(=O)Nc1cc2[nH]c(-c3ccnc(C(F)(F)F)n3)cc2cn1` (stereo in doubt) [Example 262, (1S,2S)-2-methyl-N-(2-(2-(trifluoromethyl)pyrimidin-4-yl)-1H-pyrrolo[3,2-c]pyridin-6-yl)cyclopropanecarboxamide], for which the inhibition at 1 µM under setting [4] was in the range of 0 to 33%. In addition, the inhibition at 10 µM under setting [5] was in the range of 0 to 33%.

Consider `O=C(Nc1cc2[nH]c(-c3cnc[nH]3)cc2cn1)C1CC1` [Example 330, N-(2-(1H-imidazol-5-yl)-1H-pyrrolo[3,2-c]pyridin-6-yl)cyclopropanecarboxamide], for which the inhibition at 1 µM under setting [4] fell in the range of 0 to 33%. Further, the inhibition at 10 µM under setting [5] was 0 to 33%.

`c1ncc(-c2cc3cnc(Nc4cnn(C5CCOCC5)c4)cc3[nH]2)o1` [Example 147, 2-(oxazol-5-yl)-N-(1-(tetrahydro-2H-pyran-4-yl)-1H-pyrazol-4-yl)-1H-pyrrolo[3,2-c]pyridin-6-amine]: the inhibition at 1 µM under setting [2] fell in the range of 0 to 33%. Moreover, the inhibition at 10 µM under setting [3] was 67 to 100%.

`FC(F)(F)CNc1cc(-c2cc3cnc(NC4CCOCC4)cc3[nH]2)ncn1` [Example 360, N -(tetrahydro-2H-pyran-4-yl)-2-(6-(2,2,2-trifluoroethylamino)pyrimidin-4-yl)-1H-pyrrolo[3,2-c]pyridin-6-amine] came in with an EC50 under setting [1] of under 0.5 µM.

With `CC(C)n1cc(C(=O)Nc2cc3[nH]c(-c4ccnc(OCC(F)F)n4)cc3cn2)cn1` [Example 173, N-(2-(2-(2,2-difluoroethoxy)pyrimidin-4-yl)-1H-pyrrolo[3,2-c]pyridin-6-yl)-1-isopropyl-1H-pyrazole-4-carboxamide], the inhibition at 1 µM under setting [2] was in the range of 0 to 33%. The inhibition at 10 µM under setting [3] was 67 to 100%.

With `O=C(Nc1cc2[nH]c(C(F)(F)F)cc2cn1)C1CCCC1` [Example 111, N-(2-(trifluoromethyl)-1H-pyrrolo[3,2-c]pyridin-6-yl)cyclopentanecarboxamide], the EC50 under setting [1] is over 1 µM.

Regarding `COc1nccc(-c2cc3cnc(NC(=O)c4cnn(CC5CCCO5)c4)cc3[nH]2)n1` (stereo in doubt) [Example 231, (R)-N-(2-(2-methoxypyrimidin-4-yl)-1H-pyrrolo[3,2-c]pyridin-6-yl)-1-((tetrahydrofuran-2-yl)methyl)-1H-pyrazole-4-carboxamide], the inhibition at 1 µM under setting [4] was in the range of 33 to 66%. Further, under setting [5], the inhibition at 10 µM was 33 to 66%.

`Cc1cc(-c2cc3cnc(NC(=O)C4CC4)cc3n2CCN)ncn1` [Example 75, N-(1-(2-aminoethyl)-2-(6-methylpyrimidin-4-yl)-1H-pyrrolo[3,2-c]pyridin-6-yl)cyclopropanecarboxamide] gave a 50% effective concentration (EC50) under setting [1] of over 1 µM.

In turn, `Cc1cc(-c2cc3cnc(NC4CCCOC4)cc3[nH]2)ccn1` (stereo in doubt) [Example 356, (R)-2-(2-methylpyridin-4-yl)-N-(tetrahydro-2H-pyran-3-yl)-1H-pyrrolo[3,2-c]pyridin-6-amine] had an EC50 of under 0.5 µM.

For `Cc1cc(-c2cc3cnc(NC(=O)c4cnn(C5CCC5)c4)cc3[nH]2)ccn1` [Example 205, 1-cyclobutyl-N-(2-(2-methylpyridin-4-yl)-1H-pyrrolo[3,2-c]pyridin-6-yl)-1H-pyrazole-4-carboxamide], under setting [4], the inhibition at 1 µM was 0 to 33%. Also, the inhibition at 10 µM under setting [5] lay in the range of 67 to 100%.

For `O=C(CC1CCCC1)Nc1cc2[nH]c(-c3ccncc3)cc2cn1` [Example 207, 2-cyclopentyl-N-(2-(pyridin-4-yl)-1H-pyrrolo[3,2-c]pyridin-6-yl)acetamide], the inhibition at 1 µM under setting [4] is 0 to 33%. Under setting [5], the inhibition at 10 µM lay in the range of 67 to 100%.

`Cc1cc(-c2[nH]c3cc(NC4CCOCC4)ncc3c2C(F)(F)F)ccn1` [Example 375, 2-(2-methylpyridin-4-yl)-N-(tetrahydro-2H-pyran-4-yl)-3-(trifluoromethyl)-1H-pyrrolo[3,2-c]pyridin-6-amine] registered an EC50 under setting [1] of over 1 µM.

Compound `c1cc(-c2cc3cnc(NC4CCOCC4)cc3[nH]2)ccn1` [Example 353, 2-(pyridin-4-yl)-N-(tetrahydro-2H-pyran-4-yl)-1H-pyrrolo[3,2-c]pyridin-6-amine] had an EC50 under setting [1] of under 0.5 µM.

Consider `Cc1cc(Nc2cc3[nH]c(-c4ccncc4)cc3cn2)nn1C(C)C` [Example 168, N-(1-isopropyl-5-methyl-1H-pyrazol-3-yl)-2-(pyridin-4-yl)-1H-pyrrolo[3,2-c]pyridin-6-amine], for which the inhibition at 1 µM under setting [2] was 33 to 66%. The inhibition at 10 µM under setting [3] fell in the range of 67 to 100%.

Take `COc1nccc(-c2cc3cnc(NC(=O)c4cnn(CC5CCOC5)c4)cc3[nH]2)n1` (stereo in doubt) [Example 184, (R)-N-(2-(2-methoxypyrimidin-4-yl)-1H-pyrrolo[3,2-c]pyridin-6-yl)-1-((tetrahydrofuran-3-yl)methyl)-1H-pyrazole-4-carboxamide]: under setting [2], the inhibition at 1 µM was 0 to 33%. The inhibition at 10 µM under setting [3] was 67 to 100%.

The compound `CNc1cc2c(cn1)cc(-c1ccnc(NCC(F)(F)F)n1)n2C` [Example 390, N,1-dimethyl-2-(2-(2,2,2-trifluoroethylamino)pyrimidin-4-yl)-1H-pyrrolo[3,2-c]pyridin-6-amine] registered an EC50 under setting [1] of over 1 µM.
